The IC50 is the midpoint of a concentration-inhibition curve. In general, inhibition refers to how much of the control response was suppressed.

The record followed here is patent US10780090B2, “Heteroaryl compounds useful as inhibitors of SUMO activating enzyme” (Millennium Pharmaceuticals, Inc., priority 2014, dated 2020).

This assay deals with recombinant human SAE enzyme (Homo sapiens (Human), UniProt Q9UBT2). Put plainly: SAE HTRF enzyme assay. In kind it is biochemical. The settings on record: for inhibition at 0.111 µM: read-out: Percent Inhibition. The essentials: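 0.11 nM SAE incubated with 0.5 μM ATP, 0.01 μM Ubc9-GST and 0.125 μM Sumo-Flag in HEPES pH 7.5, MgCl2, GSH, BSA, ±inhibitor, 105 min at 24° C. EDTA stop; Eu-cryptate anti-Flag/XL-APC anti-GST HTRF read after 2 h. Values given as single-concentration % inhibition or IC50.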
Chain of recombinant human SAE enzyme (Q9UBT2 whole entry): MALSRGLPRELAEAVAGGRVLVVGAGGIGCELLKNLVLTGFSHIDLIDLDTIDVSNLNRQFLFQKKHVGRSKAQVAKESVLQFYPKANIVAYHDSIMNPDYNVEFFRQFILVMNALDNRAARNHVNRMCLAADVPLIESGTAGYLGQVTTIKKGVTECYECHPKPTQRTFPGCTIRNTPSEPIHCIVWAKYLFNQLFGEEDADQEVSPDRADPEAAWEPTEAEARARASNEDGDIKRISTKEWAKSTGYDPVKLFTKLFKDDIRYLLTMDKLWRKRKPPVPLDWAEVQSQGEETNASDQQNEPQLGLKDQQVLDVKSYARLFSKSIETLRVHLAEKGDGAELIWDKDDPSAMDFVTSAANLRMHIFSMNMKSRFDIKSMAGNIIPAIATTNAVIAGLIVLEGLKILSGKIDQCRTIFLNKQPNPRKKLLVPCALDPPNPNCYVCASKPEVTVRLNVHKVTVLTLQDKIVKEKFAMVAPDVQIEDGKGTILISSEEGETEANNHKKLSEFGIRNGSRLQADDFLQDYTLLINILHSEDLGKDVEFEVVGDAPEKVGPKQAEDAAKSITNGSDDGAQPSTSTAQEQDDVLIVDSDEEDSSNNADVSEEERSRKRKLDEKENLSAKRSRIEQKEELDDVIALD
Chain of recombinant human SAE enzyme (Q9UBE0 whole entry partner): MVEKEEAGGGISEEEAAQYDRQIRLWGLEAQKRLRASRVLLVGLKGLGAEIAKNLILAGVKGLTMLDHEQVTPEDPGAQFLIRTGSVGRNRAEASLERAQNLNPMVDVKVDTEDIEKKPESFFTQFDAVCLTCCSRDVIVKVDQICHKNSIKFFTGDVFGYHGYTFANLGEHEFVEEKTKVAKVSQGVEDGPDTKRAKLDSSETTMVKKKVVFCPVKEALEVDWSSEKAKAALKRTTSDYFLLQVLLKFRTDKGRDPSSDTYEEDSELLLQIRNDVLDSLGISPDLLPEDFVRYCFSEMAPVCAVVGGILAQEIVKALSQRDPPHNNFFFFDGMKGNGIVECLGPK
A general note: In TR-FRET formats the signal depends on donor and acceptor labels being close together.

[1] abbreviates: SAE inhibition at compound concentration 0.111 μM.
Setting [2] is: SAE inhibition, class symbols, legend in nM.

Each structure is given as a SMILES string.

As for `NS(=O)(=O)OC[C@H]1C[C@@H](Nc2ncncc2C(=O)c2cc([S@+]([O-])c3cccc(Cl)c3)c(Cl)s2)C[C@@H]1O` [I-94, [(1R,2S,4R)-4-({[5-({5-Chloro-4-[(R)-(3-chlorophenyl)sulfinyl]-2-thienyl}carbonyl)pyrimidin-4-yl]amino}-2-hydroxycyclopentyl]methyl sulfamate and [(1R,2S,4R)-4-{[5-({5-chloro-4-[(S)-(3-chlorophenyl)sulfinyl]-2-thienyl}carbonyl)pyrimidin-4-yl]amino}-2-hydroxycyclopentyl]methyl sulfamate], for the setting “Concentration 0.111 μM”, the “Percent Inhibition” value is 98. Also, under “class symbols A/B/C”, the IC50 is below 10 nM.
Turning to `CC(c1cccc(Cl)c1)c1csc(C(=O)c2cncnc2N[C@@H]2C[C@H](COS(N)(=O)=O)[C@@H](O)C2)c1` (single isomer, unassigned) [I-117b, [(1R,2S,4R)-4-{[5-({4-[(1S)-1-(3-chlorophenyl)ethyl]-2-thienyl}carbonyl)pyrimidin-4-yl]amino}-2-hydroxycyclopentyl]methyl sulfamate or [(1R,2S,4R)-4-{[5-({4-[(1R)-1-(3-chlorophenyl)ethyl]-2-thienyl}carbonyl)pyrimidin-4-yl]amino}-2-hydroxycyclopentyl]methyl sulfamate], the “Percent Inhibition” value (Concentration 0.111 μM) amounted to 97. The IC50 (class symbols A/B/C) is below 10 nM.
On to `NS(=O)(=O)OC[C@H]1C[C@@H](Nc2ncncc2C(=O)c2ccc(Cc3ccccc3)s2)[C@H](O)[C@@H]1O` [I-115, [(1R,2R,3S,4R)-4-({5-[(5-benzyl-2-thienyl)carbonyl]pyrimidin-4-yl}amino)-2,3-dihydroxycyclopentyl]methyl sulfamate], for which the inhibition at 0.111 µM (Concentration 0.111 μM) stood at 90%.
As for `NS(=O)(=O)OC[C@H]1C[C@@H](Nc2ncncc2C(=O)c2cc([C@@H]3OCCc4ccc(Cl)cc43)c(C(F)F)s2)C[C@@H]1O` [I-361, (1R,2S,4R)-4-[[5-[4-[(R)-7-chloroisochroman-1-yl]-5-(difluoromethyl)thiophene-2-carbonyl]pyrimidin-4-yl]amino]-2-hydroxy-cyclopentyl]methyl sulfamate and (1R,2S,4R)-4-[[5-[4-[(1S)-7-chloroisochroman-1-yl]-5-(difluoromethyl)thiophene-2-carbonyl]pyrimidin-4-yl]amino}-2-hydroxy-cyclopentyl]methyl sulfamate], the “Percent Inhibition” value under setting [1] was determined as 95%. Further, under setting [2], the half-maximal inhibitory concentration (IC50) is below 10 nM.
`Cc1sc(C(=O)c2cncnc2N[C@@H]2C[C@H](COS(N)(=O)=O)[C@@H](O)C2)cc1[C@@H]1OCCc2ccc(C3CC3)cc21` (single isomer, unassigned) [I-277b, [(1R,2S,4R)-4-{[5-({4-[(1R)-7-cyclopropyl-3,4-dihydro-1H-isochromen-1-yl]-5-methyl-2-thienyl}carbonyl)pyrimidin-4-yl]amino}-2-hydroxycyclopentyl]methyl sulfamate or [(1R,2S,4R)-4-{[5-({4-[(1S)-7-cyclopropyl-3,4-dihydro-1H-isochromen-1-yl]-5-methyl-2-thienyl}carbonyl)pyrimidin-4-yl]amino}-2-hydroxycyclopentyl]methyl sulfamate]: the “Percent Inhibition” value (Concentration 0.111 μM) turned out to be 81. For the same compound, the half-maximal inhibitory concentration (IC50) (class symbols A/B/C) is 10 to 100 nM.
Regarding `NS(=O)(=O)OC[C@H]1C[C@@H](Nc2ncncc2C(=O)c2cc([C@@H]3OCCc4ccccc43)cs2)C[C@@H]1O.NS(=O)(=O)OC[C@H]1C[C@@H](Nc2ncncc2C(=O)c2cc([C@H]3OCCc4ccccc43)cs2)C[C@@H]1O` (mixture of isomers) [I-254, [(1R,2S,4R)-4-{[5-({4-[(1R)-3,4-dihydro-1H-isochromen-1-yl]-2-thienyl}carbonyl)pyrimidin-4-yl]amino}-2-hydroxycyclopentyl]methyl sulfamate and [(1R,2S,4R)-4-{[5-({4-[(1S)-3,4-dihydro-1H-isochromen-1-yl]-2-thienyl}carbonyl)pyrimidin-4-yl]amino}-2-hydroxycyclopentyl]methyl sulfamate], the “Percent Inhibition” value (Concentration 0.111 μM) is 99. Further, the IC50 (class symbols A/B/C) is below 10 nM.
For the compound `NS(=O)(=O)OC[C@H]1C[C@@H](Nc2ncncc2C(=O)c2cc(CO)co2)C[C@@H]1O` [I-216, [(1R,2S,4R)-2-Hydroxy-4-{(5-[4-(hydroxymethyl)-2-furoyl]pyrimidin-4-yl}amino)cyclopentyl]methyl sulfamate], the inhibition at 0.111 µM (Concentration 0.111 μM) came out at 36%. Further, the half-inhibitory concentration (IC50) (class symbols A/B/C) was in the range of 100 to 1000 nM.
Turning to `NS(=O)(=O)OC[C@H]1C[C@@H](Nc2ncncc2C(=O)c2cc([C@@H]3NCCCc4ccccc43)c(Cl)s2)C[C@@H]1O` (mixture of isomers) [I-319, [(1R,2S,4R)-4-{[5-({5-chloro-4-[(1R)-2,3,4,5-tetrahydro-1H-2-benzazepin-1-yl]-2-thienyl}carbonyl)pyrimidin-4-yl]amino}-2-hydroxycyclopentyl]methyl sulfamate and [(1R,2S,4R)-4-{[5-({5-chloro-4-[(1S)-2,3,4,5-tetrahydro-1H-2-benzazepin-1-yl]-2-thienyl}carbonyl)pyrimidin-4-yl]amino}-2-hydroxycyclopentyl]methyl sulfamate], the “Percent Inhibition” value under setting [1] is 94%. Also, the IC50 under setting [2] is below 10 nM.
As for `NS(=O)(=O)OC[C@H]1C[C@@H](Nc2ncncc2C(=O)c2cc([C@@H]3OCCCc4ccc(Cl)cc43)cs2)C[C@@H]1O` (single isomer, unassigned) [I-314b, [(1R,2S,4R)-4-{[5-({4-[(1R)-8-chloro-1,3,4,5-tetrahydro-2-benzoxepin-1-yl]-2-thienyl}carbonyl)pyrimidin-4-yl]amino}-2-hydroxycyclopentyl]methyl sulfamate or [(1R,2S,4R)-4-{[5-({4-[(1S)-8-chloro-1,3,4,5-tetrahydro-2-benzoxepin-1-yl]-2-thienyl}carbonyl)pyrimidin-4-yl]amino}-2-hydroxycyclopentyl]methyl sulfamate], the “Percent Inhibition” value under setting [1] is on record as 98%. Further, the concentration for half-maximal inhibition (IC50) under setting [2] was below 10 nM.
Regarding `NS(=O)(=O)OC[C@H]1C[C@@H](Nc2ncncc2C(=O)c2cc([C@@H](O)c3cccc(Br)c3)c(Cl)s2)C[C@@H]1O` (single isomer, unassigned) [I-16b, 1R,2S,4R)-4-{[5-({4-[(S)-(3-Bromophenyl)(hydroxy)methyl]-5-chloro-2-thienyl}carbonyl)pyrimidin-4-yl]amino}-2-hydroxycyclopentyl]methyl sulfamate or [(1R,2S,4R)-4-{[5-({4-[(R)-(3-Bromophenyl)(hydroxy)methyl]-5-chloro-2-thienyl}carbonyl)pyrimidin-4-yl]amino}-2-hydroxycyclopentyl]methyl sulfamate], the “Percent Inhibition” value (Concentration 0.111 μM) stood at 98. The IC50 (class symbols A/B/C) is below 10 nM.
On to `NS(=O)(=O)OC[C@H]1C[C@@H](Nc2ncncc2C(=O)c2cc(CC3=CCOCC3)cs2)C[C@@H]1O` [I-196, {(1R,2S,4R)-4-[(5-{[4-(3,6-dihydro-2H-pyran-4-ylmethyl)-2-thienyl]carbonyl}pyrimidin-4-yl)amino]-2-hydroxycyclopentyl}methyl sulfamate], for which the inhibition at 0.111 µM (Concentration 0.111 μM) was 63%. Besides, the IC50 (class symbols A/B/C) lay within 10 to 100 nM.
Regarding `COCc1sc(C(=O)c2cncnc2N[C@@H]2C[C@H](COS(N)(=O)=O)[C@@H](O)C2)cc1C(O)c1cccc(Cl)c1` (single isomer, unassigned) [I-7a, [(1R,2S,4R)-4-{[5-({4-[(R)-(3-chlorophenyl)(hydroxy)methyl]-5-(methoxymethyl)-2-thienyl}carbonyl)pyrimidin-4-yl]amino}-2-hydroxycyclopentyl]methyl sulfamate or [(1R,2S,4R)-4-{[5-({4-[(S)-(3-chlorophenyl)(hydroxy)methyl]-5-(methoxymethyl)-2-thienyl}carbonyl)pyrimidin-4-yl]amino}-2-hydroxycyclopentyl]methyl sulfamate], where the note is “Concentration 0.111 μM”, the “Percent Inhibition” value turned out to be 96. Besides, the IC50 (class symbols A/B/C) is below 10 nM.
Turning to `Cc1cccc(Cc2cc(C(=O)c3cncnc3N[C@@H]3C[C@H](COS(N)(=O)=O)[C@@H](O)C3)sc2C)c1` [I-45, {(1R,2S,4R)-2-hydroxy-4-[(5-{[5-methyl-4-(3-methylbenzyl)-2-thienyl]carbonyl}pyrimidin-4-yl)amino]cyclopentyl}methyl sulfamate], the inhibition at 0.111 µM (Concentration 0.111 μM) was found to be 99%. The IC50 (class symbols A/B/C) is below 10 nM.
Regarding `NS(=O)(=O)OC[C@H]1C[C@@H](Nc2ncncc2C(=O)c2cc([C@@H]3OCCc4cc(Cl)ccc43)cs2)C[C@@H]1O` [I-357, [(1R,2S,4R)-4-[[5-[4-[(1R)-6-chloroisochroman-1-yl]thiophene-2-carbonyl]pyrimidin-4-yl]amino]-2-hydroxy-cyclopentyl]methyl sulfamate and [(1R,2S,4R)-4-[[5-[4-[(1S)-6-chloroisochroman-1-ylthiophene-2-carbonyl]pyrimidin-4-yl]amino}-2-hydroxy-cyclopentyl]methyl sulfamate], the “Percent Inhibition” value under setting [1] worked out at 97%. The IC50 under setting [2] was below 10 nM.
On to `Cc1sc(C(=O)c2cncnc2N[C@@H]2C[C@H](COS(N)(=O)=O)[C@@H](O)C2)cc1CN1CCc2cc(Cl)ccc21` [I-159, [(1R,2S,4R)-4-{[5-({4-[(5-chloro-2,3-dihydro-1H-indol-1-yl)methyl]-5-methyl-2-thienyl}carbonyl)pyrimidin-4-yl]amino}-2-hydroxycyclopentyl]methyl sulfamate], for which the inhibition at 0.111 µM (Concentration 0.111 μM) is 91%. The half-inhibitory concentration (IC50) (class symbols A/B/C) was below 10 nM.
Regarding `CCc1ccc2c(c1)[C@H](c1cc(C(=O)c3cncnc3N[C@@H]3C[C@H](COS(N)(=O)=O)[C@@H](O)C3)sc1C)OCC2` (mixture of isomers) [I-346, [(1R,2S,4R)-4-{[5-({4-[(1R)-7-ethyl-3,4-dihydro-1H-isochromen-1-yl]-5-methyl-2-thienyl}carbonyl)pyrimidin-4-yl]amino}-2-hydroxycyclopentyl]methyl sulfamate and [(1R,2S,4R)-4-{[5-({4-[(1S)-7-ethyl-3,4-dihydro-1H-isochromen-1-yl]-5-methyl-2-thienyl}carbonyl)pyrimidin-4-yl]amino}-2-hydroxycyclopentyl]methyl sulfamate], the “Percent Inhibition” value under setting [1] came to 99%. For the same compound, the IC50 under setting [2] is below 10 nM.
